Patent US9815846B2 (Merck Sharp & Dohme Corp., priority 2014, dated 2017)

These compounds were tested against human TrkA receptor (Homo sapiens (Human), UniProt P04629) (assay: DiscoverX PathHunter TrkA functional assay (NGF-stimulated U2OS cells)). Settings: U2OS cells expressing human TrkA-PK, Shc1-EA and p75NTR; compound 1 h, then NGF at ~80% of maximal response for 3 h; luminescence.
Type: cell-based

Chain of human TrkA receptor (P04629 33-796): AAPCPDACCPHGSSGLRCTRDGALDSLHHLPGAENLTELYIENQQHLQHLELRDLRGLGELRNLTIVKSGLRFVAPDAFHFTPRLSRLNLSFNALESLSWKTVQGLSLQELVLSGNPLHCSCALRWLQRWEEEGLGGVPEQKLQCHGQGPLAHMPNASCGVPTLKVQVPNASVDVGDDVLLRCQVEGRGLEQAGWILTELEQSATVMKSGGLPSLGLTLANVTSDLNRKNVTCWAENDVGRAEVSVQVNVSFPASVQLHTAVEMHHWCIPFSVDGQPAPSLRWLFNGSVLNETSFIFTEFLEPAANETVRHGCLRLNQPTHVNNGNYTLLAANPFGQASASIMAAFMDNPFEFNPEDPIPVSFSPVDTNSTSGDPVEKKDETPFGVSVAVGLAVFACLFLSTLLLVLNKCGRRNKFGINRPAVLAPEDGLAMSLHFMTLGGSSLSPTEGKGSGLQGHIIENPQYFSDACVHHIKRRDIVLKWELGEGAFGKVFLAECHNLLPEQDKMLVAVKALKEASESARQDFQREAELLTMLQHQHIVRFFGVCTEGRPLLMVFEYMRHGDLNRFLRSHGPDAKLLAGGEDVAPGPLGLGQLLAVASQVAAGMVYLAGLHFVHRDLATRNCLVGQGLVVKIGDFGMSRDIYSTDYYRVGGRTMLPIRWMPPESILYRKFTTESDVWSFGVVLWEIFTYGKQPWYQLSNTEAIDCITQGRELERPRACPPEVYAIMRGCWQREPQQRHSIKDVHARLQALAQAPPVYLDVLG

Compound	IC50 [nM]
CC(=O)NCc1ncc(NC(=O)c2ccc(C(F)(F)F)c(-c3ccn(C)n3)c2)c(-c2ccccc2)n1 [Example 49, N-(2-(acetamidomethyl)-4-phenylpyrimidin-5-yl)-3-(1-methyl-1H-pyrazol-3-yl)-4-(trifluoromethyl)benzamide]	3.6
Cc1ncc(NC(=O)c2ccc(C(F)(F)F)c(-c3cscn3)c2)c(-c2ccccc2)n1 [Example 12, N-(2-methyl-4-phenylpyrimidin-5-yl)-3-(1,3-thiazol-4-yl)-4-(trifluoromethyl)benzamide]	36
Cn1ccc(-c2cc(C(=O)Nc3ccc(CN4CC5(COC5)C4)nc3-c3ccccc3)c(F)cc2C(F)(F)F)n1 [Example 183, N-(6-((2-oxa-6-azaspiro[3.3]heptan-6-yl)methyl)-2-phenylpyridin-3-yl)-2-fluoro-5-(1-methyl-1H-pyrazol-3-yl)-4-(trifluoromethyl)benzamide]	7
Cn1ccc(-c2cc(C(=O)Nc3ncc(CNC(=O)CO)nc3-c3ccccc3)c(F)cc2C(F)(F)F)n1 [Example 65, 2-fluoro-N-(5-((2-hydroxyacetamido)methyl)-3-phenylpyrazin-2-yl)-5-(1-methyl-1H-pyrazol-3-yl)-4-(trifluoromethyl)benzamide]	3.3
Cn1ccc(-c2cc(C(=O)Nc3cnc(CC(=O)N[C@H]4C[C@@H](O)C4)nc3-c3ccccc3)c(F)cc2C(F)(F)F)n1 [Example 109, 2-fluoro-N-(2-(2-(((1s,3s)-3-hydroxycyclobutyl)amino)-2-oxoethyl)-4-phenylpyrimidin-5-yl)-5-(1-methyl-1H-pyrazol-3-yl)-4-(trifluoromethyl)benzamide]	2.6
Cn1ccc(-c2cc(C(=O)Nc3cc4c(nc3-c3ccccc3)CCNC4=O)c(F)cc2C(F)(F)F)n1 [Example 152, 2-fluoro-5-(1-methyl-1H-pyrazol-3-yl)-N-(5-oxo-2-phenyl-5,6,7,8-tetrahydro-1,6-naphthyridin-3-yl)-4-(trifluoromethyl)benzamide]	0.069
Cn1ccc(-c2cc(C(=O)Nc3cnc(CNC(=O)OC(C)(C)C)nc3-c3ccccc3)ccc2C(F)(F)F)n1 [Example 41, t-Butyl ((5-(3-(1-methyl-1H-pyrazol-3-yl)-4-(trifluoromethyl)benzamido)-4-phenylpyrimidin-2-yl)methyl)carbamate]	5
CC(=O)NCc1cnc(-c2cnc(-c3ccccc3)c(NC(=O)c3cc(-c4ncccn4)c(C(F)(F)F)cc3F)c2)nc1 [Example 170, N-(5-(5-(acetamidomethyl)pyrimidin-2-yl)-2-phenylpyridin-3-yl)-2-fluoro-5-(pyrimidin-2-yl)-4-(trifluoromethyl)benzamide]	16
CC(=O)Nc1cccc(-c2nc(C)ncc2NC(=O)c2cc(-c3ccn(C)n3)c(C(F)(F)F)cc2F)c1 [Example 133, N-(4-(3-acetamidophenyl)-2-methylpyrimidin-5-yl)-2-fluoro-5-(1-methyl-1H-pyrazol-3-yl)-4-(trifluoromethyl)benzamide]	4.6
Cn1ccc(-c2cc(C(=O)Nc3nccnc3-c3ccccc3)ccc2C(F)(F)F)n1 [Example 25, 3-(1-methyl-1H-pyrazol-3-yl)-N-(3-phenylpyrazin-2-yl)-4-(trifluoromethyl)benzamide]	83
Cc1ncc(NC(=O)c2ccc(C(F)(F)F)c(-c3ncco3)c2)c(-c2ccccc2)n1 [Example 20, N-(2-methyl-4-phenylpyrimidin-5-yl)-3-(1,3-oxazol-2-yl)-4-(trifluoromethyl)benzamide]	15
Cn1ccc(-c2cc(C(=O)Nc3ccc(CNC(=O)CS(C)(=O)=O)nc3-c3ccccc3)c(F)cc2C(F)(F)F)n1 [Example 59, 2-fluoro-5-(1-methyl-1H-pyrazol-3-yl)-N-(6-((2-(methylsulfonyl)acetamido)methyl)-2-phenylpyridin-3-yl)-4-(trifluoromethyl)benzamide]	0.23
CC(=O)N1CC(c2ccc(NC(=O)c3cc(-c4ccn(C)n4)c(C(F)(F)F)cc3F)c(-c3ccccc3)n2)C1 [Example 208, N-(6-(1-acetylazetidin-3-yl)-2-phenylpyridin-3-yl)-2-fluoro-5-(1-methyl-1H-pyrazol-3-yl)-4-(trifluoromethyl)benzamide]	3
Cn1ccc(-c2cc(C(=O)Nc3cnc(CC(N)=O)cc3-c3ccccc3)c(F)cc2C(F)(F)F)n1 [Example 101, N-(6-(2-Amino-2-oxoethyl)-4-phenylpyridin-3-yl)-2-fluoro-5-(1-methyl-1H-pyrazol-3-yl)-4-(trifluoromethyl)benzamide]	1.1
